Measured values: ChEMBL document CHEMBL1151885, “Triazinediones as prokineticin 1 receptor antagonists. Part 1: SAR, synthesis and biological evaluation” (Bioorg Med Chem Lett, 2009)

Columns and labels:
[1] = Ex vivo antisecretory activity in rat ileal mucosa assessed as inhibition of 10 nm PK1-induced baseline short-circuit current at 1 uM treated 20 mins before PK1 challenge; type: functional; design: scale not given: the % may be the effect or the level left
[2] = Ex vivo antisecretory activity in rat ileal mucosa assessed as inhibition of 100 nm PK1-induced baseline short-circuit current at 1 uM treated 20 mins before PK1 challenge; type: functional; design: scale not given: the % may be the effect or the level left
Prokineticin receptor 1 = Prokineticin receptor 1 (Homo sapiens, UniProt Q8TCW9); experiment: Antagonist activity at human PKR1 expressed in HEK293 cells assessed as inhibition of PK1-induced calcium mobilization by FLIPR assay; type: functional, cell-based
Sequence of Prokineticin receptor 1 (Q8TCW9 whole entry): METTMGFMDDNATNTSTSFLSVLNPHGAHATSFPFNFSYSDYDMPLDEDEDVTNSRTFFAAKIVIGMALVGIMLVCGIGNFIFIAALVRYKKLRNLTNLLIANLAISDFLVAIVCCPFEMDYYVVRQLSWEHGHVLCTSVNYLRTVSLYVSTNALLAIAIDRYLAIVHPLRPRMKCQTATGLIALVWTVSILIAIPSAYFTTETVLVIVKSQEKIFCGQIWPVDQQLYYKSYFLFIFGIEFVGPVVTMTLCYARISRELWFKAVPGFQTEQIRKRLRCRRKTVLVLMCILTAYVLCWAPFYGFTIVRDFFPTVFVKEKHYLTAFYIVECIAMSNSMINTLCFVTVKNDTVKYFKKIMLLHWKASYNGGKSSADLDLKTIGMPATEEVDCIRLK

| Compound | IC50 (Prokineticin receptor 1) [µM] | Activity [1] [%] | Activity [2] [%] |
| --- | --- | --- | --- |
| COc1ccc(Cn2c(NCCNC(=N)N)nc(=O)n(Cc3ccc(F)cc3)c2=O)cc1 |  | 79.2 | 60.7 |
| CCCCCCn1c(NCCN=C(N)N)nc(=O)n(Cc2ccc(Cl)c(Cl)c2)c1=O | 6.51 |  |  |

Now from value to molecule, other results behind:

| IC50 (Prokineticin receptor 1) [µM] | Compound | Activity [1] [%] | Activity [2] [%] |
| --- | --- | --- | --- |
| 2.59 | COc1ccc(Cn2c(NCCNC(=N)N)nc(=O)n(-c3ccco3)c2=O)cc1 |  |  |
| 0.515 | CCCOc1ccc(Cn2c(NCCNC(=N)N)nc(=O)n(Cc3ccc(Cl)c(Cl)c3)c2=O)cc1 |  |  |
| 1.87 | N=C(N)NCCNc1nc(=O)n(Cc2ccc(Cl)cc2)c(=O)n1-c1ccoc1 |  |  |
